Laboratory results: patent publication US20180098959A1, “METHODS FOR TREATING CANCER” (BOSTON BIOMEDICAL, INC., priority 2015, published 2018)

How the values were obtained:
hepatocellular carcinoma = experiment: combination with FOLFOX, hepatocellular carcinoma patients; assay type: in vivo, human; conditions: Chemo Backbone FOLFOX
Protocol: The effects of 2-acetylnaphtho[2,3-b]furan-4,9-dione in combination with FOLFOX were assessed in adult patients with hepatocellular carcinoma in a clinical study.
Patients who were pretreated with 1 and 4 lines of prior treatment, respectively, received oral administration of 2-acetylnaphtho[2,3-b]furan-4,9-dione twice daily together with FOLFOX. For example, 2-acetylnaphtho[2,3-b]furan-4,9-dione was administered at a dose of 240 mg BID in combination with FOLFOX. Oxaliplatin 85 mg/m^2 together with leucovorin 400 mg/m^2 were administered intravenously. 5-FU 400 mg/m^2 bolus was administered intravenously immediately following oxaliplatin/leucovorin infusion, followed by 5-FU 1200 mg/m^2/day (total 2400 mg/m^2 over 46-48 hours) continuous intravenous infusion. This regimen was repeated every 14 days thereafter or until progression of disease, unacceptable toxicity, or other discontinuation criterion was met.

FaDu sphere cultures = experiment: qPCR cancer stem cell array, gene expression after treatment; assay type: cell-based; set-up: % Change ATM gene expression / % Change WEE1 gene expression / % Change ACTB gene expression / % Change MERTK gene expression / % Change FGFR2 gene expression / % Change EPCAM gene expression / % Change NOTCH2 gene expression / % Change DDR1 gene expression / % Change STAT3 gene expression / % Change LATS1 gene expression / % Change GSK3B gene expression / % Change TWIST2 gene expression / % Change ITGA2 gene expression / % Change ENG gene expression / % Change PLAUR gene expression / % Change SMO gene expression / % Change DACH1 gene expression / % Change EGF gene expression / % Change TGFBR1 gene expression / % Change ALCAM gene expression / % Change ALDH1A1 gene expression / % Change MAML1 gene expression / % Change HDAC1 gene expression / % Change RPLP0 gene expression / % Change WWC1 gene expression / % Change CD44 gene expression / % Change TAZ gene expression / % Change ITGA6 gene expression / % Change HPRT1 gene expression / % Change JAG1 gene expression / % Change ITGB1 gene expression / % Change IKBKB gene expression / % Change ID1 gene expression / % Change AXL gene expression / % Change DNMT1 gene expression / % Change ITGA4 gene expression / % Change KITLG gene expression / % Change ETFA gene expression / % Change IL8 gene expression / % Change JAK2 gene expression / % Change FOXP1 gene expression / % Change MYC gene expression / % Change NANOG gene expression / % Change YAP1 gene expression / % Change FLOT2 gene expression / % Change KLF17 gene expression / % Change BMI1 gene expression / % Change CHEK1 gene expression / % Change CD34 gene expression / % Change NOTCH1 gene expression / % Change LIN28A gene expression / % Change ATXN1 gene expression / % Change MUC1 gene expression / % Change POU5F1 gene expression / % Change ERBB2 gene expression / % Change CD24 gene expression / % Change PECAM1 gene expression / % Change SIRT1 gene expression / % Change NFKB1 gene expression: dose or concentration left out as unconfirmed
Protocol: Changes in gene expression following treatment with 2-acetylnaphtho[2,3-b]furan-4,9-dione were evaluated using a cancer stem cell PCR array.
FaDu sphere cultures were treated for 6 hours with DMSO (control) or 2-acetylnaphtho[2,3-b]furan-4,9-dione at 2 mM. RNA was isolated, reversed transcribed, and the resulting cDNA was analyzed using a qPCR cancer stem cell array. Glyceraldehyde 3-phosphate dehydrogenase (GAPDH) was used as a housekeeping gene to normalize the data.

[1] = FaDu sphere cultures, 6 hours, GAPDH-normalized, vs DMSO control

Structure (SMILES): CC(=O)c1cc2c(o1)C(=O)c1ccccc1C2=O [2-acetylnaphtho[2,3-b]furan-4,9-dione]
- Best Response, regression (hepatocellular carcinoma; Patient 0089, BBI608 240 mg bid, 1 prior line): 9%
- Best Response, regression (hepatocellular carcinoma; Patient 0121, BBI608 240 mg bid, 4 prior lines): 9%
- % Change ACTB gene expression (FaDu sphere cultures; [1]): −24.49%
- % Change ALCAM gene expression (FaDu sphere cultures; [1]): −36.13%
- % Change ALDH1A1 gene expression (FaDu sphere cultures; [1]): −18.18%
- % Change ATM gene expression (FaDu sphere cultures; [1]): −68.65%
- % Change ATXN1 gene expression (FaDu sphere cultures; [1]): −45.26%
- % Change AXL gene expression (FaDu sphere cultures; [1]): −48.50%
- % Change B2M gene expression (FaDu sphere cultures; [1]): −27.69%
- % Change BMI1 gene expression (FaDu sphere cultures; [1]): −47.40%
- % Change CD24 gene expression (FaDu sphere cultures; [1]): −26.46%
- % Change CD34 gene expression (FaDu sphere cultures; [1]): −88.18%
- % Change CD44 gene expression (FaDu sphere cultures; [1]): −35.44%
- % Change CHEK1 gene expression (FaDu sphere cultures; [1]): −28.88%
- % Change DACH1 gene expression (FaDu sphere cultures; [1]): −36.55%
- % Change DDR1 gene expression (FaDu sphere cultures; [1]): −38.59%
- % Change DNMT1 gene expression (FaDu sphere cultures; [1]): −32.09%
- % Change EGF gene expression (FaDu sphere cultures; [1]): −19.07%
- % Change ENG gene expression (FaDu sphere cultures; [1]): −37.62%
- % Change EPCAM gene expression (FaDu sphere cultures; [1]): −22.87%
- % Change ERBB2 gene expression (FaDu sphere cultures; [1]): −43.81%
- % Change ETFA gene expression (FaDu sphere cultures; [1]): −31.12%
- % Change FGFR2 gene expression (FaDu sphere cultures; [1]): −41.18%
- % Change FLOT2 gene expression (FaDu sphere cultures; [1]): −29.19%
- % Change FOXP1 gene expression (FaDu sphere cultures; [1]): −29.76%
- % Change GSK3B gene expression (FaDu sphere cultures; [1]): −38.06%
- % Change HDAC1 gene expression (FaDu sphere cultures; [1]): −36.10%
- % Change HPRT1 gene expression (FaDu sphere cultures; [1]): −33.81%
- % Change ID1 gene expression (FaDu sphere cultures; [1]): −12.68%
- % Change IKBKB gene expression (FaDu sphere cultures; [1]): −32.11%
- % Change IL8 gene expression (FaDu sphere cultures; [1]): −7.62%
- % Change ITGA2 gene expression (FaDu sphere cultures; [1]): −60.71%
- % Change ITGA4 gene expression (FaDu sphere cultures; [1]): −11.52%
- % Change ITGA6 gene expression (FaDu sphere cultures; [1]): −54.63%
- % Change ITGB1 gene expression (FaDu sphere cultures; [1]): −50.45%
- % Change JAG1 gene expression (FaDu sphere cultures; [1]): −14.24%
- % Change JAK2 gene expression (FaDu sphere cultures; [1]): −47.94%
- % Change KITLG gene expression (FaDu sphere cultures; [1]): −47.99%
- % Change KLF17 gene expression (FaDu sphere cultures; [1]): −90.18%
- % Change LATS1 gene expression (FaDu sphere cultures; [1]): −60.75%
- % Change LIN28A gene expression (FaDu sphere cultures; [1]): −87.52%
- % Change MAML1 gene expression (FaDu sphere cultures; [1]): −52.82%
- % Change MERTK gene expression (FaDu sphere cultures; [1]): −65.78%
- % Change MUC1 gene expression (FaDu sphere cultures; [1]): −27.42%
- % Change MYC gene expression (FaDu sphere cultures; [1]): −3.91%
- % Change NANOG gene expression (FaDu sphere cultures; [1]): −93.34%
- % Change NFKB1 gene expression (FaDu sphere cultures; [1]): −25.54%
- % Change NOTCH1 gene expression (FaDu sphere cultures; [1]): −46.24%
- % Change NOTCH2 gene expression (FaDu sphere cultures; [1]): −64.37%
- % Change PECAM1 gene expression (FaDu sphere cultures; [1]): −70.26%
- % Change PLAUR gene expression (FaDu sphere cultures; [1]): −20.64%
- % Change POU5F1 gene expression (FaDu sphere cultures; [1]): −77.31%
- % Change RPLP0 gene expression (FaDu sphere cultures; [1]): −17.48%
- % Change SIRT1 gene expression (FaDu sphere cultures; [1]): −43.35%
- % Change SMO gene expression (FaDu sphere cultures; [1]): −55.56%
- % Change STAT3 gene expression (FaDu sphere cultures; [1]): −22.87%
- % Change TAZ gene expression (FaDu sphere cultures; [1]): −15.09%
- % Change TGFBR1 gene expression (FaDu sphere cultures; [1]): −53.34%
- % Change TWIST2 gene expression (FaDu sphere cultures; [1]): −21.59%
- % Change WEE1 gene expression (FaDu sphere cultures; [1]): −42.86%
- % Change WWC1 gene expression (FaDu sphere cultures; [1]): −51.64%
- % Change YAP1 gene expression (FaDu sphere cultures; [1]): −47.45%
- expression of cancer stem cell markers and genes such as Nanog, Axl, Atm, and Bmi-1 (FaDu sphere cultures; cancer stem cell PCR array): downregulated
